Measurements taken from patent US20080090900A1, “ANTIBIOTIC BUSHRIN” (University of Karachi, priority 2006, published 2008).

System: Clostridium sporogenes
Experiment: microbe, parasite or virus in culture
Format: cell-based

In the case of `Cc1cc(O)c2c(c1)C=CC(C)(c1ccoc1)C2` (stereo not shown) [Compound 1, 7-(3-furyl)-3,7-dimethyl-7,8-dihydro-1-naphthalenol], the “antibacterial activity” value is reported as “less active”.
